{"source": "patent US12275927B2", "about": "“Microbial contamination control in bioprocessing” (The Regents of the University of California, priority 2019, dated 2025)", "key": {"[1]": {"test_system": "RFP-expressing E. coli, OW94", "conditions": "read-out: chlorite IC50; OW94 negative control, growth (OD600) 24 hours at 37° C., MRM medium", "protocol": "(§1) 100 μL of water was added to the negative control wells. The plate was then placed in a shaker and cultivated overnight at 37° C., 250 rpm. IC50 were determined 24 hours after inoculation by measuring OD600."}, "[2]": {"test_system": "cCld expressing strain OW116", "protocol": "as §1"}, "parental LMG194": {"test_system": "parental LMG194", "conditions": "read-out: chlorite IC50; LMG194, growth (OD600) 24 hours at 37° C., MRM medium", "protocol": "as §1"}, "wtCld-expressing OW95": {"test_system": "wtCld-expressing OW95", "protocol": "as §1"}, "[3]": {"test_system": "chlorite hyper-resistant strain OW105", "conditions": "MRM medium", "protocol": "as §1\nOW95 cells were revived from freezer stocks, transferred into liquid MRM medium, and induced for Cld expression as described above."}, "OW116": {"test_system": "OW116", "protocol": "(§2) A 2 L round-bottom autoclavable laboratory fermenter (BiOENGiNEERiNG), was operated as an iso-volumetric chemostat with 1 L of MRM medium in the bioreactor vessel. Temperature, dissolved oxygen (dO), and pH were monitored during the course of the experiments. Temperature was set and maintained at 37° C. pH was set to 7.2 and adjusted automatically based on the real time pH value with 1M NaOH or 1M HCl. dO was set to 20% of the maximal dO value at 37° C. with constant air flow of 2 L/min. Constant dO was maintained by automatic agitation speed adjustment based on the real-time dO value. Agitation speed varied between 200-700 RPM, depending on oxygen demand. Two separate pumps were used to control medium inflow and waste outflow rates.\n(§3) The chemostat at first operated as a batch culture (dilution rate equal to 0), until the culture reached mid-log phase (OD600 of ˜0.7-1.0), then dilution rate was set to be approximately equal to the cell growth rate. This allowed the bioreactor to achieve a zero net growth while maintaining a near-maximum specific growth rate. […] All growth data were plotted and calculated using the Prism 7 software."}, "OW94": {"test_system": "OW94", "protocol": "as §2, §3"}, "[4]": {"test_system": "C. crescentus phage CR-30", "conditions": "incubated with chlorite at 30 C", "protocol": "(§4) Influent wastewater samples were collected from the East Bay Municipal Utility District's wastewater treatment plant in Oakland, CA, and filtered through […] filters to remove debris and microbes. To make a phage enrichment culture, 5 mL of filtered wastewater was mixed with 5 mL of 2× LB medium and inoculated with 100 μL of stationary E. coli cells, incubated for 48 hours at 37° C., 50 RPM. Next, a sterile cotton swab was dipped into an overnight E. coli culture, smeared on an LB agar plate, and 10 μL of the phage enrichment culture was then spotted on the plate. The plate was incubated overnight at 37° C. […] Phage particles from the clear zone were picked into the phage buffer (10 mM Tris, 1 mM CaCl2 10 mM MgCl2, 68 mM NaCl, pH 7.5, adapted from the Phage Hunting Program, University of Pittsburgh), followed by dilution to extinction and plating to obtain single plaques with pure phage cultures. Phage cultures were maintained at 4° C. in the phage buffer. […] Samples were taken at designated time points and mixed with PYE (0.3%) agar and log phase (OD660 0.1-04) C. crescentus culture before plating on PYE plates. Plaque forming unites were counted after 24 hours."}, "E. coli lytic phages": {"test_system": "E. coli lytic phages", "conditions": "4 mM chlorite, 37° C.", "protocol": "as §4"}, "SCW enrichment culture": {"test_system": "SCW enrichment culture", "conditions": "4 mM chlorite, OW117 bioreactor, SCW enrichment added", "protocol": "as §2"}, "[5]": {"test_system": "contaminants from Strawberry Creek water", "conditions": "10 mM chlorite spiked, reactor contaminated with 1% (v/v) creek water, OW115", "protocol": "as §2"}, "[6]": {"test_system": "SCW enrichment culture, OW117 and OW118", "conditions": "SCW enrichment vs OW117 vs OW118", "source_text": "as §3"}, "Azospira suillum PS": {"test_system": "Azospira suillum PS", "conditions": "40 μM chlorite, unpublished observations"}, "[7]": {"test_system": "cld deletion (Acid) mutant", "conditions": "40 μM chlorite, unpublished observations"}, "[8]": {"conditions": "4 mM chlorite spiked into chemostat at equilibrium growth, 37° C."}, "[9]": {"conditions": "batch cultures, different chlorite concentrations"}}}
{"substance": "Sodium chlorite", "values": [{"measurement": "IC50", "setting": "[1]", "result": 560, "unit": "µM"}, {"measurement": "chlorite resistance of cCld relative to wtCld", "setting": "[2]; cCld vs wtCld", "result": 5, "unit": "fold"}, {"measurement": "IC50", "setting": "[2]; read-out: chlorite IC50, OW116, growth (OD600) 24 hours at 37° C., MRM medium", "result": 8940, "unit": "µM"}, {"measurement": "IC50", "setting": "parental LMG194", "result": 300, "unit": "µM"}, {"measurement": "increase in chlorite resistance compared to negative controls", "setting": "wtCld-expressing OW95; OW95 vs OW94 and LMG194", "result": "three-fold increase"}, {"measurement": "IC50", "setting": "wtCld-expressing OW95; read-out: chlorite IC50, OW95, Cld induced at 26° C., growth (OD600) 24 hours at 37° C., MRM medium", "result": 1740, "unit": "µM"}, {"measurement": "chlorite concentration in which the strain was able to grow, reaching a similar final OD600 as without chlorite control", "setting": "[3]; end of directed evolution, 37° C.", "result": 8, "unit": "mM"}, {"measurement": "IC50", "setting": "[3]; read-out: chlorite IC50, OW105, growth (OD600) 24 hours at 37° C.", "result": 4600, "unit": "µM"}, {"measurement": "specific growth rate after the chlorite spike", "setting": "OW116; [8]", "result": "0.64 ± 0.10", "unit": "h⁻¹"}, {"measurement": "reduction of specific growth rate after the chlorite spike", "setting": "OW116; 4 mM chlorite, chemostat, vs before spike", "result": "~20", "unit": "%"}, {"measurement": "specific growth rate in batch culture as chlorite concentration increased", "setting": "OW116; [9]", "result": "only reduced slightly"}, {"measurement": "specific growth rate after the chlorite spike", "setting": "OW94; [8]", "result": "0.01 ± 0.07", "unit": "h⁻¹"}, {"measurement": "specific growth rate in batch culture as chlorite concentration increased", "setting": "OW94; [9]", "result": "drastically decreased"}, {"measurement": "phage inactivation", "setting": "[4]", "result": "chlorite-induced phage inactivation"}, {"measurement": "phage inactivation", "setting": "E. coli lytic phages", "result": "chlorite-induced phage inactivation"}, {"measurement": "indigo production after addition of contaminants", "setting": "SCW enrichment culture", "result": "indigo was steadily produced until the end of the experiment"}, {"measurement": "effect of chlorite spike on the contaminated bioreactor", "setting": "[5]", "result": "contaminants were inhibited and washed out"}, {"measurement": "batch growth in medium with chlorite", "setting": "[6]", "result": "only OW118 could endure medium with chlorite"}, {"measurement": "aerobic growth in the presence of chlorite", "setting": "Azospira suillum PS", "result": "grew aerobically"}, {"measurement": "aerobic growth in the presence of chlorite", "setting": "[7]", "result": "failed to grow"}]}
